The values that follow come from US20160038474A1, “COMPOSITIONS AND METHODS FOR THE MODULATION OF HEMOGLOBIN (S)” (GLOBAL BLOOD THERAPEUTICS, INC., priority 2013, published 2016).

Like-named read-outs stand apart in the source and are kept apart here.

The subject of one series is washed red blood cells. Kind of series: Reverse Hemox assay (OEC), washed red blood cells. It is filed as cell-based, human. Particulars: washed RBCs; 1 mM compound; control 30 mm Hg. On the procedure:
(§1) Oxygen Equilibrium Curves (OEC) of whole blood before and after treatment with different concentrations of compounds 12, 22 and 23 were performed as follows using a HEMOX analyzer (TCS Scientific, New Hope, Pa.). Blood samples from homozygous sickle cell patients were obtained though the Hemoglobinopathy Center at Children's Hospital Oakland Research Institute (CHORI) with Institutional Review Board approval. The hematocrit was adjusted to 20% using autologous plasma and the blood samples were incubated for 1 hour at 37° C. in absence or presence of compounds. 100 μl of these samples were added to 5 mL of Hemox butter (30 mM TES, 130 mM NaCl, 5 mM KCl, pH=7.4) at 37° C. and then transferred to the Hemox sample chamber. The samples were saturated with oxygen by flushing with compressed air for 10 minutes. The samples were then flushed with pure nitrogen and the respective absorbances of oxy- and deoxy-Hb are recorded as a function of the solution pO2. The oxygen equilibrium data were then fitted to the Hill Model to obtain values for p50. The deoxygenation curves for both whole blood alone (control) and whole blood in the presence of the compound were collected with the TCS software.
(§2) Reverse hemox assay was performed essentially as described in Example 2, above, using either washed red blood cells or whole blood.
Results: Table 4, below, indicates the percent change in p50 (delta p50%) for each compound tested. In the washed red blood cells (RBCs), 5-HMF, compound 5, and compound 12 (1 mM compound) gave p50 of 20, 9 and 7 mm Hg, respectively, compared to the control red blood cells (delta p50=30 mm Hg). To determine the effects of plasma proteins on compound activity. OECs were measured in whole blood from sickle cell disease patients. 5-HMF, compound 5, compound 9, and compound 12 gave p50 of 27, 18, 11 and 6 mm Hg, respectively, compared to the control blood p50 of 30 mm Hg.

The target of series [1] is T1, HbS (Homo sapiens, UniProt P68871+P69905, E7V). Put plainly: 96-well oxygen dissociation assay (ODA). It is filed as biochemical. Conditions: [Hb] 3 μM; [cmp] 1 μM.
The test system of series [2] is sickle cell disease patient whole blood (ssRBCs). Kind of series: Viscosity assay, hypoxic sickle cell blood. It is filed as cell-based, human. Conditions: [Hb] 1.5 mM; [cmp] 8 mM; two hours of hypoxia. On the procedure: Sickle cell disease patients develop anemia as a means for the circulatory system to compensate for increase in blood viscosity caused by the non-deformable sickle cell red blood cells (ssRBCs). The effects of 5-HMF, compound 5, compound 9, or compound 12 were tested on sickle cell disease patient blood rheology to determine if these compounds decrease the viscosity of ssRBCs that have undergone hypoxia. Using blood from patients with sickle cell disease, whole blood (30% hematocrit, ˜1.5 mM Hb) was incubated with 5-HMF, compound 5, compound 9, or compound 12 during exposure to two hours of hypoxia (2.4% 02). A cone-plate viscometer was used to measure the viscosity at shear rates ranging from 60 s^−1 to 415 s^−1.

Series [3] deals with T1, HbS. Put plainly: 96-well oxygen dissociation assay (ODA). The class given is biochemical. The text has this: Results: Table 4 below lists the change in oxygen affinity (Δoxy state). After two hours of passive deoxygenation, compound 12, at an equimolar concentration to Hb, increased the Hb oxygen affinity by 6-fold.
The target in series [4] is T2, whole blood from homozygous sickle cell patients, Hb(S) (Homo sapiens, UniProt P68871+P69905, E7V).
T2 construct: Oxygen Equilibrium Curves (OEC) of whole blood before and after treatment; from tissue; host or cells: whole blood (or washed red blood cells) of homozygous sickle cell patients
Kind of series: Reverse Hemox assay (oxygen equilibrium curves), whole blood. It is filed as cell-based. Particulars: for Whole Blood OEC (delta p50%): [Hb] 1 mM; for Reverse Hemox delta p50% (class) / Reverse Hemox delta p50%: 1 mM compound, whole blood, hematocrit 20%; for Reverse Hemox delta p50%: 1 hour 37° C. On the procedure: as §1
Results: Table 3 below lists the delta p50% values where “+” indicates a delta p50% of between 0 and 29, “++” indicates a delta p50% of between 30 and 50, and “+++” indicates a delta p50% of 50 or greater.
as §2

A further series has as its target T3, purified HbS (Homo sapiens, UniProt P68871+P69905, E7V).
T3 construct: HbS is purified by the CRO VIRUSYS, from blood obtained from homozygous sickle cell patients; tissue VIRUSYS (CRO that did the purification); host or cells: blood of homozygous sickle cell patients
Put plainly: HbS polymerization assay. It is filed as biochemical. Conditions: 75 μM compound; 50 μM HbS. On the procedure:
Polymerization assays are carried out in vitro using purified HbS exchanged into 1.8 M potassium phosphate buffer at pH 7.4. Using a slightly modified protocol (Antonini and Brunori, 1971). HbS is purified by the CRO VIRUSYS, from blood obtained from homozygous sickle cell patients through the Hemoglobinopathy Center at Children's Hospital Oakland Research Institute (CHORI) with Institutional Review Board approval. Compounds are prepared in 100% DMSO and a desired amount is added to 50 μM of purified HbS at a final DMSO concentration of 0.3%. Final potassium phosphate concentration is adjusted to 1.8 M using a combination of 2.5 M potassium phosphate stock solution and water at pH 7.4. The reaction mixture is incubated for an hour at 37° C. and then transferred into a 24-well plate for deoxygenation in a glove box containing 99.5% nitrogen and 0.5% oxygen. The 24-well plate is not covered and incubated at 4° C. on a plate cooler inside the glove box for one and a half hours. Fifty μl of the reaction mixture is transferred into a 96-well plate and the absorbance at 700 nm is measured every minute for one hour at 37° C. in a plate reader located inside the glove box. A plot of the absorbance against time is fitted using a Boltzman sigmoidal fit and the delay time (from zero to time at half Vmax) is measured. To compare and rank compounds, delay times are expressed as percent delay (% DT), which is defined as the difference in delay times for HbS/compound and HbS alone multiplied by 100 and divided by the delay time for HbS alone.
The ability of 5-HMF and compound 12 to delay HbS polymerization was evaluated as described in Example 2, above. Purified HbS (50 μM) was pre-incubated with 25 μM, 50 μM, or 100 μM of 5-HMF or compound 12, then passively de-oxygenated at 4° C. in 1.8 M potassium phosphate. Polymerization was induced via temperature jump from 4° C. to 37° C. Polymerization was quantified based on turbidity of the HbS solution under continued hypoxia.

Series [5] in a line: Rat pharmacokinetics and blood/plasma partitioning (Example 1). The class given is in vivo, Rats (Sprague-Dawley). Conditions: for level of compound in blood versus plasma, overall exposure / relative proportion in blood (as compared to plasma) at peak concentration (Cmax): dosed orally; for Vd / bioavailability / clearance / blood plasma ratio: male, Sprague-Dawley; for Vd / bioavailability: in vivo; for Vd / clearance: oral 10 mg/kg or intravenous 1 mg/kg; for Vd: read-out: Vss; for bioavailability: oral 10 mg/kg, intravenous 1 mg/kg; for clearance: plasma; for blood plasma ratio: whole blood and plasma, oral, 10 mg/kg. On the procedure:
This experiment was established and used in order to assess the pharmacokinetic (PK) properties of the compounds.
Sample collection and data analysis: Rats (Sprague-Dawley, male, 8-12[…] weeks old) were dosed with one of three compounds corresponding to compound 12, compound 22 or compound 23. The rats received oral (10 mg/kg) or intravenous (1 mg/kg) doses of the compound. Rats were fasted overnight before the experiments and provided with food after the 2 hour sampling time point.
Blood samples were collected at different time points. Blood was anti-coagulated by 3.2% TSC (trisodium citrate) and a portion was separated into plasma fraction by centrifugation and removal of blood cells. Plasma and lysed blood samples were anal) zed for drug concentration using LC-MS/MS. PK parameters were calculated by non compartmental analysis of the concentration-time profiles using WinNonLin software (Pharsight, Mountain View, Calif.). Apparent elimination half-life (t1/2) values were calculated as ln(2)/k. Area under the concentration-time curve (AUC) values were estimated using the linear trapezoidal method. AUClast values were calculated from the dosing time to the last measurable concentration. AUCinf values were calculated as the sum of the corresponding AUClast and the ratio of the last detectable concentration divided by k. Plasma clearance (Cl) is calculated from Dose/AUCinf. Volume of distribution at steady state (Vss) is calculated from Mean Residence Timeinf×Clss. Maximum concentration (Cmax) and time to Cmax (Tmax) was recorded as observed. The blood/plasma partitioning ratio was calculated at each experimental time point.

Another series deals with T4, HbS/A (Homo sapiens, UniProt P68871+P69905, E7V).
T4 construct: A mixture of HbS/A was purified from blood obtained from homozygous sickle cell patients; from tissue; host or cells: blood of homozygous sickle cell patients
Put plainly: R/T assay (relaxed-to-tense transition). The class given is biochemical. Conditions: HbS/A 3 μM. On the procedure: This ability can be expressed as a “delta R” value (i.e., the change in the time-period of the R state after hemoglobin is treated with a compound, as compared to the period without treatment with the compound). Delta R is the % R to remaining after the compounds treatment compared with no treatment (e.g., if R % without treatment is 8% while with treatment with a target compound is 48% R at 30 μM, then % R is 40% for that compound.
A mixture of HbS/A was purified from blood obtained from homozygous sickle cell patients though the Hemoglobinopathy Center at Children's Hospital Oakland Research Institute (CHORI) with Institutional Review Board approval. HbS/A (at a final concentration of 3 μM) was incubated for 1 hr at 37° C. in presence or absence of compounds in […] potassium phosphate buffer, pH=7.4 and 30 μM 2,3 diphosphoglycerate (DPG) in 96 well plates in a final volume of 160 μl. Compounds were added at different concentrations (3 μM to 100 μM final concentrations). Plates were covered with a Mylar film. After incubation was completed the Mylar cover was removed and the plates were placed in a Spectrostar Nano plate reader previously heated at 37° C. Five minutes later, N2 (flow rate=20 L/min) was flowed through the spectrophotometer. Spectroscopic measurements (300 nm to 700 nm) were taken every 5 min for 2 hours. Data analysis was performed by using linear regression from the data retrieved for all wavelengths.

The mark [6] stands for this setting: read-out: Blood/plasma (Ratio of exposure AUCINF).
Where [7] appears, read: read-out: Blood/plasma (Ratio of peak concentration).

For `COc1cc(C=O)c(OCc2cccnc2-c2[nH]ncc2C)cn1` [Compound 5, 2-methoxy-5-[[2-(4-methyl-1H-pyrazol-5-yl)pyridin-3-yl]methoxy]pyridine-4-carbaldehyde], the p50 with washed red blood cells is listed as 9 mm Hg; in series [4] (whole blood from sickle cell disease patients, control blood p50 30 mm Hg), 18 mm Hg. Moreover, the “Hb in ODA (Δoxy state)” value is on record as 2 on HbS [1] and 10 at HbS [3] ([Hb] 3 μM, [cmp] 3 μM). Also, in series [2], the “Viscosity (ΔcP)” value is reported as greater than 2.4 cP. Also, the “potency at increasing the oxygen affinity of HbS compared with 5-HMF” value at HbS [3] (96-well ODA) is “more potent at increasing the oxygen affinity of HbS than 5-hydroxy furfural”. The figures for the “Whole Blood OEC (delta p50%)” value in series [4] ([cmp] 1 mM) and in series [4] ([cmp] 3 mM) were 49% and 71%, respectively.
Broadly, the bioavailability is the share of a dose that reaches the circulation, judged against a reference dose that is usually intravenous. Low values mean little systemic uptake, high ones much systemic uptake. In the case of `COc1cc(C=O)c(OCc2cccnc2-c2ccnn2CC(F)F)cn1` [Compound 22, 5-[[2-[2-(2,2-difluoroethyl)pyrazol-3-yl]pyridin-3-yl]methoxy]-2-methoxypyridine-4-carbaldehyde], on purified HbS, the “Polymerization % DT (class)” value is given as “†† (activity >80% but ≦120%)” and the “Polymerization % DT (percent delay)” value is 90.22%. Also, in series [5], the “level of compound in blood versus plasma, overall exposure” value is recorded as 5 fold; the “relative proportion in blood (as compared to plasma) at peak concentration (Cmax)” value turned out to be 5 fold; the Vd is 3.1 L/kg; the bioavailability is 6.6%. The molecule further displayed a clearance in series [5] of 9 mL/min/kg. The blood plasma ratio in series [5] (setting [6]) was 33. In series [5] (setting [7]), the blood plasma ratio came to 5. In addition, on HbS/A (9 μM compound), the “R-T delta R” value is 31.02; the “R-T delta R (class)” value is “++ (a delta R of between 30 and 50)”. On HbS/A (10 μM compound), the “R-T delta R” value is given as 36.25; the “R-T delta R (class)” value was “++ (a delta R of between 30 and 50)”. Besides, in series [4], the “Reverse Hemox delta p50% (class)” value is “+++ (a delta p50% of 50 or greater)” and the “Reverse Hemox delta p50%” value is 68.69%.
Consider `COc1cc(C=O)c(OCc2cccnc2-c2ccccc2C)cn1` [Compound 23, 2-methoxy-5-[[2-(2-methylphenyl)pyridin-3-yl]methoxy] pyridine-4-carbaldehyde], for which, at purified HbS, the “Polymerization % DT (class)” value is “†† (activity >80% but ≦120%)” and the “Polymerization % DT (percent delay)” value was determined as 98.19%. In addition, in series [5], the “level of compound in blood versus plasma, overall exposure” value was 1 fold; the “relative proportion in blood (as compared to plasma) at peak concentration (Cmax)” value is reported as 3 fold; the Vd was found to be 3.15 L/kg; the bioavailability worked out at 1.8%. In series [5], the clearance is 13.7 mL/min/kg. Besides, in series [5] (setting [6]), the blood plasma ratio worked out at 4. Besides, in series [5] (setting [7]), the blood plasma ratio amounted to 1. Moreover, on HbS/A (9 μM compound), the “R-T delta R” value turned out to be 37.15; the “R-T delta R (class)” value was “++ (a delta R of between 30 and 50)”. For the same molecule, on HbS/A (10 μM compound), the “R-T delta R” value was determined as 51.55 and the “R-T delta R (class)” value is reported as “+++ (a delta R of 50 or greater)”. Moreover, in series [4], the “Reverse Hemox delta p50% (class)” value is listed as “+++ (a delta p50% of 50 or greater)” and the “Reverse Hemox delta p50%” value was found to be 72.45%.
